Assays:
BMP1 = target: T1, BMP1 (Homo sapiens, UniProt P13497); assay: Inhibition of human BMP1 expressed in Escherichia coli assessed as residual activity using Abz-YVADAPK(Dnp)G-OH as substrate at 200 uM by fluorescence assay relative to control; conditions: probe Abz-YVADAPK(Dnp)G-OH, read-out: Activity
T1 sequence (P13497 whole entry): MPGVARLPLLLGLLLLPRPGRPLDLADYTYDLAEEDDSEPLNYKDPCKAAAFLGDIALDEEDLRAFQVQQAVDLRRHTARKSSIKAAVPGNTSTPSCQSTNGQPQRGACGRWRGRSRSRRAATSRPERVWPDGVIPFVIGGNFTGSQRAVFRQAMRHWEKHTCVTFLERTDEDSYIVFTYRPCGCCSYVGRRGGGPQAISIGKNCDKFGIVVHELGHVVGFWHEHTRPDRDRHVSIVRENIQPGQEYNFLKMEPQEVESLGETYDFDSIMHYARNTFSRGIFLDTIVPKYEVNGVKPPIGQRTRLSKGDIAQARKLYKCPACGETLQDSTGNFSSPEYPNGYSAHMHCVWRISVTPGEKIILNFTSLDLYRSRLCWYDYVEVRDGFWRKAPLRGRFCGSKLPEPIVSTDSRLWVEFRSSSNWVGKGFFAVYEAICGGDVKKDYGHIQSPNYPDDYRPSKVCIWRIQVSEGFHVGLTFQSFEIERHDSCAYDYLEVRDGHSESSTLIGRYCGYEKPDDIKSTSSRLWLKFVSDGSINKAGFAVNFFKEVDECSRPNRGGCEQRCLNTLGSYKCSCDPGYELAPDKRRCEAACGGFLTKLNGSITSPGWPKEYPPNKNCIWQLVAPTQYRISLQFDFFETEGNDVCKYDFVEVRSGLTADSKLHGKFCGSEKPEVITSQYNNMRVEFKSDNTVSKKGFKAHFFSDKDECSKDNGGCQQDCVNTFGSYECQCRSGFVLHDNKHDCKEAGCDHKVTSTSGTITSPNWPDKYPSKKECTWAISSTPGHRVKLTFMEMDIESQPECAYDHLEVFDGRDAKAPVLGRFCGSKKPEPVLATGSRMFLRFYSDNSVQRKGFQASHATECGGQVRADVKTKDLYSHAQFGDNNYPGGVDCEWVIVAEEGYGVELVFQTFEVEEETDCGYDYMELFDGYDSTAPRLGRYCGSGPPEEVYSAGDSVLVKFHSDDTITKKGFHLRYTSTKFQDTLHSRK

[1] = Drug absorption in Sprague-Dawley rat at 5 mg/kg, po by LC-MS analysis; assay type: ADME, organism-based; conditions: in vivo, read-out: Fabs
[2] = Cmax in Sprague-Dawley rat at 5 mg/kg, po by LC-MS analysis; assay type: ADME, organism-based; design: dose 5 mg/kg, route oral; conditions: in vivo
[3] = Drug absorption in Sprague-Dawley rat at 10 mg/kg, ip by LC-MS analysis; assay type: ADME, organism-based; conditions: in vivo, read-out: Fabs
[4] = Cmax in Sprague-Dawley rat at 10 mg/kg, ip by LC-MS analysis; assay type: ADME, organism-based; design: dose 10 mg/kg, route intraperitoneal; conditions: in vivo
[5] = Tmax in Sprague-Dawley rat at 10 mg/kg, ip by LC-MS analysis; assay type: ADME, organism-based; conditions: in vivo
[6] = Half life in Sprague-Dawley rat at 6 mg/kg, iv by LC-MS analysis; assay type: ADME, organism-based; conditions: in vivo
MMP9 = MMP9 (Homo sapiens, UniProt P14780); assay: Inhibition of human MMP9 assessed as residual activity using Mca-PLGL-(DapDnp)-AR-NH2 as substrate at 200 uM by fluorescence assay relative to control; conditions: human MMP9 enzyme, probe Mca-PLGL-(DapDnp)-AR-NH2, read-out: Activity
Sequence of MMP9 (P14780 whole entry): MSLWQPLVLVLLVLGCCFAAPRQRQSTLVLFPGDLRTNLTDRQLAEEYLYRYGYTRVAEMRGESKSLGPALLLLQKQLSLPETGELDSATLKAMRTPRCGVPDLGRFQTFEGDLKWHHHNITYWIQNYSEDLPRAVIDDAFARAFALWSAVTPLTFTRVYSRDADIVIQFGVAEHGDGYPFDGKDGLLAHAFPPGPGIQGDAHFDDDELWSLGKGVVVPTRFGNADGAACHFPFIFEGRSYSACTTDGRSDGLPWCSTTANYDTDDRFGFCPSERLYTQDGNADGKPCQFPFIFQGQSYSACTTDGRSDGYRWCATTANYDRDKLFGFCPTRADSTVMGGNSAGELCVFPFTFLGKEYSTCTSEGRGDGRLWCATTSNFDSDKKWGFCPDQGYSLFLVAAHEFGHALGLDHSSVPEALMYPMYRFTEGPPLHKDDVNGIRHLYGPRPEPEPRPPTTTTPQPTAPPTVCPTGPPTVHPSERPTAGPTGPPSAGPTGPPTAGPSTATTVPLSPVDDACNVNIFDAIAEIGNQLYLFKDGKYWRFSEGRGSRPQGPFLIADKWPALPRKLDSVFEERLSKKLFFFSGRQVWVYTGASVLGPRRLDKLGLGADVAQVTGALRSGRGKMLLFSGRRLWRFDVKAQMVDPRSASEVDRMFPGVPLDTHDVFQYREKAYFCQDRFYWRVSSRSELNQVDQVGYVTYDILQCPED

MMP13 = MMP13 (Homo sapiens, UniProt P45452); assay: Inhibition of human MMP13 assessed as residual activity using Mca-PLGL-(DapDnp)-AR-NH2 as substrate at 200 uM by fluorescence assay relative to control; conditions: human MMP13 enzyme, probe Mca-PLGL-(DapDnp)-AR-NH2, read-out: Activity
ADAM10 = target: T2, ADAM10 (Homo sapiens, UniProt O14672); assay: Inhibition of human ADAM10 assessed as residual activity using Abz-LANAVRSSSR-(DapDnp)-AR-NH2 as substrate at 200 uM by fluorescence assay relative to control; conditions: human ADAM10 enzyme, probe Abz-LANAVRSSSR-(DapDnp)-AR-NH2, read-out: Activity
T2 sequence (O14672 whole entry): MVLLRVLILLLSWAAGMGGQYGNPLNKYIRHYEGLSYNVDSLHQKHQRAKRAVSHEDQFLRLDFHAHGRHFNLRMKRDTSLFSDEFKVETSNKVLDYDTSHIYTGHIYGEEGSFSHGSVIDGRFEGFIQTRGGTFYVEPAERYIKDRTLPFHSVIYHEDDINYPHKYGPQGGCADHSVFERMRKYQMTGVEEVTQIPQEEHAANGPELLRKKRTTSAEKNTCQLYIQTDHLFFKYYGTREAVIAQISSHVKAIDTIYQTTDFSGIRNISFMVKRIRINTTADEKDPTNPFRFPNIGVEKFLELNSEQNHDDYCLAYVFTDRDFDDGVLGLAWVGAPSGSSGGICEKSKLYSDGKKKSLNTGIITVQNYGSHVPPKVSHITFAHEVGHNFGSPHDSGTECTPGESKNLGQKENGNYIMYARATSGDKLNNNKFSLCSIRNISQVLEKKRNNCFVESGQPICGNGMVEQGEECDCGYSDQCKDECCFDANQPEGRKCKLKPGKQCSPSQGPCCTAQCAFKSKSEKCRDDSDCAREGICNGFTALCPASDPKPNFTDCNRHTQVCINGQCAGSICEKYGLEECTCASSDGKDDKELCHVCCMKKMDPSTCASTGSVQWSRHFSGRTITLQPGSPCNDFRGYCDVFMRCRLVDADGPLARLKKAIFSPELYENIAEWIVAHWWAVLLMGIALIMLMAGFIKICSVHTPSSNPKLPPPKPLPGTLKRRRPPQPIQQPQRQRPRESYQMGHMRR

ADAM17 = ADAM17 (Homo sapiens, UniProt P78536); assay: Inhibition of human ADAM17 assessed as residual activity using Abz-LANAVRSSSR-(DapDnp)-AR-NH2 as substrate at 200 uM by fluorescence assay relative to control; conditions: human ADAM17 enzyme, probe Abz-LANAVRSSSR-(DapDnp)-AR-NH2, read-out: Activity
Sequence of ADAM17 (P78536 whole entry): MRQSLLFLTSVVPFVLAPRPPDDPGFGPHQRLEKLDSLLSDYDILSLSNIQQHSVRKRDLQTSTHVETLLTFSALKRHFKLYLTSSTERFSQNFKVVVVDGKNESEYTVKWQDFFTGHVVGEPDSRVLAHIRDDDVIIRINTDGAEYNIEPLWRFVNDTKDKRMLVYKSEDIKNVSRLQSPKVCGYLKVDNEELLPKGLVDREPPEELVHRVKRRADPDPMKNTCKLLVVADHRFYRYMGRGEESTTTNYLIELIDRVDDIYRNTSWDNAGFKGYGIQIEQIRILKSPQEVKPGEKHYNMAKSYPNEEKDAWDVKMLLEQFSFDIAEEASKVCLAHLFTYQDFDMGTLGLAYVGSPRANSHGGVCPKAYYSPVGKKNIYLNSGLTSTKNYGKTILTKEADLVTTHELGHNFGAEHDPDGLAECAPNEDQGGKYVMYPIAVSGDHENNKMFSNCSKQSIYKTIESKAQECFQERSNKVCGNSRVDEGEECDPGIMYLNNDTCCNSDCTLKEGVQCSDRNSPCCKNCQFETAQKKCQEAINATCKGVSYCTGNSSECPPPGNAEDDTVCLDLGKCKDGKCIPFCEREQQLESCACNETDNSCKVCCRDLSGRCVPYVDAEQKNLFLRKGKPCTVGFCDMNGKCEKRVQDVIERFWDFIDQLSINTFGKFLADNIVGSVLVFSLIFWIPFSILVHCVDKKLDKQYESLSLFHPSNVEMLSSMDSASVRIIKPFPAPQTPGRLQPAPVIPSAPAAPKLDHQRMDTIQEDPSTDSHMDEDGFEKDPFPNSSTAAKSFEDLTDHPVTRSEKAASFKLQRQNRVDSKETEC

SH-SY5Y = assay: Cytotoxicity in human SH-SY5Y cells assessed as cell viability at 100 uM after 24 hrs by CytoTox-ONE-based assay relative to control; assay type: functional; conditions: read-out: Activity

Work on `O=C(CN(Cc1cccc(C(=O)O)c1)Cc1cccc(C(=O)O)c1)NO` yielded an activity at 200 µM (BMP1) of 87%, a Fa [1] of 13% and a Cmax [2] of 340 ng/mL. It also gave a Fa [3] of 84%, a Cmax [4] of 6460 ng/mL and a Tmax [5] of 7.2 min. The half-life [6] was 2.5 h, the activity at 200 µM (MMP9) was 74% and the activity at 200 µM (MMP13) was 78%. The activity at 200 µM (ADAM10) was 93%, the activity at 200 µM (ADAM17) was 76% and the viability at 100 µM (SH-SY5Y) was 96%.
